Data: patent US20210230548A1, “NATURAL KILLER CELLS ENGINEERED TO EXPRESS CHIMERIC ANTIGEN RECEPTORS WITH IMMUNE CHECKPOINT BLOCKADE” (Board of Regents, The University of Texas System, priority 2018, published 2021)

What was measured:
[1] = test system: iC9/CAR.19/IL-15 NK cells; assay: Activation of suicide gene in vitro with dimerizer AP1903; format: cell-based
Protocol: (§1) Activation of suicide gene in vitro and validation in vivo: The small-molecule dimerizer AP1903 (10 nM), was added to CB-NK cell cultures for 4 h. The elimination of transduced cells was evaluated by Annexin-V/Live dead staining. The efficacy of the suicide gene was also tested in vivo by treating tumor-bearing mice that had received iC9/CAR.19/IL-15+ NK cells (control or CISH KO) with two doses of AP1903 (50 μg each) intraperitoneally, 2 days apart on days 7 and 9. Two other groups of mice (control and CISH KO) served as control without AP1903 treatment. All mice were sacrificed on day 12, and blood and organs (Liver, spleen and bone marrow) were collected, processed and flow cytometry was performed to determine CAR-NK fraction and viability.

[2] = test system: iC9/CAR.19/IL-15 CB-NK cells; assay: Suicide gene validation in vivo in Raji tumor-bearing mice; design: species or system mouse; conditions: dimerizer on days 7 and 9 post NK infusion, sacrifice day 12; both control and CISH KO cells
Protocol: as §1

CISH locus = assay: GUIDE-seq off-target identification in HEK293 cells constitutively expressing Cas9; format: cell-based; conditions: GuideSeq
Excerpt: Off-target Identification: The GUIDE-seq method was employed for unbiased discovery of off-target editing events (Tsai et al., 2015). In this study, HEK293 cells that constitutively express the S pyogenes Cas9 nuclease (“HEK293-Cas9” cells) were the source of Cas9. Alt-R® gRNA complexes were formed by combining Alt-R tracrRNA and Alt-R crRNA XT at a 1:1 molar ratio. gRNA complexes were delivered by nucleofection using the Amaxa™ Nucleofector™ 96-well Shuttle™ System (Lonza, Basel, Switzerland). For each nucleofection, 3.5×10^5 HEK293-Cas9 cells were washed with 1×PBS, resuspended in 20 μL solution SF (Lonza) and combined with 10 μM gRNA along with 0.5 μM GUIDE-seq dsDNA donor fragment. This mixture was transferred into one well of a Nucleocuvette™ Plate (Lonza) and electroporated using protocol 96-DS-150. DNA was extracted 72 hrs after electroporation using the GeneJET Genomic DNA purification kit (Thermo Fisher Scientific). NGS library preparation, sequencing, and operation of the GUIDE-seq software was performed as previously described except that Needleman-Wunch alignment was incorporated (Tsai et al., 2016).

CC[C@H](C(=O)N1CCCC[C@H]1C(=O)O[C@H](CCc1ccc(OC)c(OC)c1)c1cccc(OCC(=O)NCCNC(=O)COc2cccc([C@@H](CCc3ccc(OC)c(OC)c3)OC(=O)[C@@H]3CCCCN3C(=O)[C@@H](CC)c3cc(OC)c(OC)c(OC)c3)c2)c1)c1cc(OC)c(OC)c(OC)c1 [AP1903]
time to apoptosis of transduced NK cells ([1]; 10 nM): ≤ 4 h | apoptosis of transduced NK cells ([1]; 10 nM added to cultures): induced apoptosis of transduced NK cells | reduction in iC9/CAR.19/IL-15 CB-NK cells in blood and tissues (liver, spleen, bone marrow) [2]: striking reduction

crRNA2: crRNA targeting CISH exon 4, sequence TGTACAGCAGTGGCTGGTGG (SEQ ID NO:2) (listed as DNA, chemistry not given here)
off-target sites / events (CISH locus): even higher frequencies of off-target events
